From patent US11767341B2, “Lincosamide antibiotics and uses thereof” (President and Fellows of Harvard College, priority 2017, dated 2023)
In brackets after ≈: the same amount, converted by molar mass. Where two headings read alike, the source gives them in different places.

Experiments:
Assay in all cases: MIC determination
Format in all cases: cell-based
[1] = tested on: S. aureus UNT-146, MP-620, TP 506 (ermA); conditions: Staphylococcus aureus
[2] = tested on: E. faecalis MMX 847 Macrolide-Resistant; conditions: Enterococcus faecalis
S. aureus BAA 977 iErmA = conditions: Staphylococcus aureus, BAA977
E. faecalis ATCC 29212 = conditions: Enterococcus faecalis
[3] = tested on: K. pneumoniae IHMA 658692; KPC-2; conditions: Klebsiella pneumoniae
[4] = tested on: P. aeruginosa MMX Mex parent strain; conditions: Pseudomonas aeruginosa
[5] = tested on: S. pyogenes MMX 946 Macrolide-Resistant; conditions: Streptococcus pyogenes
[6] = tested on: S. pneumoniae MMX 3031 cMefA; conditions: Streptococcus pneumoniae, MMX3031CMEFA
[7] = tested on: S. aureus Micromyx USA 300; conditions: Staphylococcus aureus, USA300; S. aureus Micromyx USA 300; read-out: MIC
[8] = tested on: S. pneumoniae UNT-039, MP-627, TP1517 (mefA); conditions: Streptococcus pneumoniae
[9] = tested on: S. aureus UNT-120, MP-619, NRS22 (USA 600, GISA); conditions: Staphylococcus aureus
[10] = tested on: S. pneumoniae MMX 3028 cErmB; conditions: Streptococcus pneumoniae, MMX3028CERMB; S. pneumoniae MMX 3028 cErmB; read-out: MIC
[11] = tested on: S. pneumoniae UNT-038, MP-626, TP 160 (mefA); conditions: Streptococcus pneumoniae
S. pneumoniae ATCC 49619 = conditions: Streptococcus pneumoniae, ATCC49619; S. pneumoniae ATCC 49619; read-out: MIC
[12] = tested on: S. pyogenes UNT-014, MP-625 MacRes; conditions: Streptococcus pyogenes; S. pyogenes UNT-014, MP-625 MacRes; read-out: MIC
S. pyogenes ATCC 19615 = conditions: Streptococcus pyogenes, ATCC19615; S. pyogenes ATCC 19615; read-out: MIC
E. coli MMX 0121 ΔTolC = conditions: Escherichia coli
H. influenzae ATCC 49247 = conditions: Haemophilus influenzae, ATCC49247; H. influenzae ATCC 49247; read-out: MIC
E. faecalis UNT-047 VRE = conditions: Enterococcus faecalis
[13] = tested on: S. pneumoniae TP 1537 (ermB + mefA); conditions: Streptococcus pneumoniae
S. aureus MMX 3035 cErmA = conditions: Staphylococcus aureus, MMX3035CERMA
K. pneumoniae ATCC 10031 = conditions: Klebsiella pneumoniae, ATCC10031; K. pneumoniae ATCC 10031; read-out: MIC
K. pneumoniae UNT TEM-10 = conditions: Klebsiella pneumoniae, UNTTEM10
[14] = tested on: S. pneumoniae TP 1579 (ermB + tet(M, O)); conditions: Streptococcus pneumoniae
B. fragilis ATCC 25285 = conditions: Bacteroides fragilis, ATCC25285; B. fragilis ATCC 25285; read-out: MIC
[15] = tested on: E. coli MMX TolC parent strain; conditions: Escherichia coli
P. aeruginosa ATCC 27853 = conditions: Pseudomonas aeruginosa, ATCC27853
[16] = tested on: P. aeruginosa MMX 3476 Δmex; conditions: Pseudomonas aeruginosa
[17] = tested on: S. aureus UNT96, NRS710, MP-618 (USA 100, Erythro >8); conditions: Staphylococcus aureus
C. difficile BAA 1805 = conditions: Clostridioides difficile, BAA1805; C. difficile BAA 1805; read-out: MIC
S. aureus ATCC 29213 = conditions: Staphylococcus aureus, ATCC29213, S. aureus ATCC 29213; read-out: MIC
[18] = tested on: S. aureus BAA-1556 (USA 300); conditions: Staphylococcus aureus
E. coli ATCC 25922 = conditions: Escherichia coli
E. coli GUEST131 (NDM-1) = conditions: Escherichia coli
[19] = tested on: S. aureus MP-549 msr(a) USA 300; conditions: Staphylococcus aureus, USA300, S. aureus MP-549 msr(a) USA 300
[20] = S. aureus UNT-146, MP-620, TP 506 (ermA), read-out: MIC
[21] = K. pneumoniae IHMA 658692, KPC-2, read-out: MIC
[22] = S. aureus UNT-120, MP-619, NRS22 (USA 600, GISA), read-out: MIC
[23] = E. faecalis UNT-047 VRE, read-out: MIC
[24] = S. pneumoniae TP 1537 (ermB + mefA), read-out: MIC
[25] = P. aeruginosa ATCC 27853, read-out: MIC
[26] = S. aureus UNT96, NRS710, MP-618 (USA 100, Erythro >8), read-out: MIC
[27] = S. aureus BAA-1556 (USA 300), read-out: MIC
[28] = ATCC25922, E. coli ATCC 25922, read-out: MIC

SMILES	MIC [1, 20] [µg/mL]	MIC (S. aureus BAA 977 iErmA) [µg/mL]	MIC (E. faecalis ATCC 29212; ATCC29212, read-out: MIC) [µg/mL]	MIC [3, 21] [µg/mL]	MIC [6] [µg/mL]	MIC [7] [µg/mL]	MIC [8] [µg/mL]	MIC [9, 22] [µg/mL]	MIC [10] [µg/mL]	MIC [11] [µg/mL]	MIC (S. pneumoniae ATCC 49619) [µg/mL]	MIC [12] [µg/mL]	MIC (S. pyogenes ATCC 19615) [µg/mL]	MIC (E. coli MMX 0121 ΔTolC) [µg/mL]	MIC (H. influenzae ATCC 49247) [µg/mL]	MIC (E. faecalis UNT-047 VRE; [23]) [µg/mL]	MIC (K. pneumoniae ATCC 10031) [µg/mL]	MIC [14] [µg/mL]	MIC (S. aureus ATCC 29213) [µg/mL]	MIC (E. coli GUEST131 (NDM-1)) [µg/mL]	further results
CSC1O[C@H]([C@H](NC(=O)[C@H]2NC[C@@H]3CC(F)(F)CCO[C@H]32)[C@H](C)Cl)C(O)[C@@H](O)[C@H]1O (some centres unmarked) [FSA-24036]	> 32	0.5 (≈ 1.05 µM)	4 (≈ 8.42 µM)	> 32	≤ 0.06	0.12 (≈ 0.253 µM)	≤ 0.0313	> 32	64 (≈ 135 µM)	≤ 0.0313	≤ 0.06	≤ 0.0313	≤ 0.0313	8 (≈ 16.8 µM)	4 (≈ 8.42 µM)	> 32	16 (≈ 33.7 µM)	≤ 0.0313	0.25 (≈ 0.526 µM)	> 32	MIC ([2]; E. faecalis MMX 847 Macrolide-Resistant (MacRes), read-out: MIC): > 64 µg/mL; MIC ([4]; P. aeruginosa MMX Mex parent strain, read-out: MIC): > 64 µg/mL; MIC ([5]; S. pyogenes MMX 946 Macrolide-Resistant (MacRes), read-out: MIC): 4 µg/mL (≈ 8.42 µM); MIC [13, 24]: > 32 µg/mL; MIC (S. aureus MMX 3035 cErmA; S. aureus MMX 3035 cErmA, read-out: MIC): > 64 µg/mL; MIC (K. pneumoniae UNT TEM-10; K. pneumoniae UNT TEM-10, read-out: MIC): > 32 µg/mL; MIC (B. fragilis ATCC 25285): 4 µg/mL (≈ 8.42 µM); MIC ([15]; E. coli MMX TolC parent strain, read-out: MIC): > 64 µg/mL; MIC (P. aeruginosa ATCC 27853; [25]): > 64 µg/mL; MIC [16]: 32 µg/mL (≈ 67.4 µM); MIC [17, 26]: > 32 µg/mL; MIC (C. difficile BAA 1805): 2 µg/mL (≈ 4.21 µM); MIC [18, 27]: > 32 µg/mL; MIC (E. coli ATCC 25922; [28]): > 64 µg/mL
CSC1O[C@H]([C@H](NC(=O)[C@H]2NC[C@@H]3CC=CCO[C@H]32)[C@H](C)Cl)C(O)[C@@H](O)[C@H]1O (some centres unmarked) [FSA-24035]		0.25 (≈ 0.572 µM)			≤ 0.06	0.12 (≈ 0.275 µM)	≤ 0.0313		64 (≈ 146 µM)	≤ 0.0313	≤ 0.06	≤ 0.0313	≤ 0.0313	4 (≈ 9.15 µM)	1 (≈ 2.29 µM)		64 (≈ 146 µM)	≤ 0.0313	0.12 (≈ 0.275 µM)	> 32	MIC [1]: > 32 µg/mL; MIC [2]: > 64 µg/mL; MIC (E. faecalis ATCC 29212; ATCC29212): 16 µg/mL (≈ 36.6 µM); MIC [3]: 32 µg/mL (≈ 73.2 µM); MIC [4]: > 64 µg/mL; MIC [5]: 16 µg/mL (≈ 36.6 µM); MIC [9]: > 32 µg/mL; MIC [19]: 0.5 µg/mL (≈ 1.14 µM); MIC (E. faecalis UNT-047 VRE; VRE): > 32 µg/mL; MIC [13]: 32 µg/mL (≈ 73.2 µM); MIC (S. aureus MMX 3035 cErmA): > 64 µg/mL; MIC (K. pneumoniae UNT TEM-10): 32 µg/mL (≈ 73.2 µM); MIC (B. fragilis ATCC 25285): 8 µg/mL (≈ 18.3 µM); MIC [15]: > 64 µg/mL; MIC (P. aeruginosa ATCC 27853): > 64 µg/mL; MIC [16]: 16 µg/mL (≈ 36.6 µM); MIC [17]: > 32 µg/mL; MIC (C. difficile BAA 1805): 2 µg/mL (≈ 4.58 µM); MIC [18]: > 32 µg/mL; MIC (E. coli ATCC 25922; ATCC25922): > 64 µg/mL
CSC1O[C@H]([C@H](NC(=O)[C@H]2NC[C@@H]3CCCCO[C@H]32)[C@H](C)Cl)C(O)[C@@H](O)[C@H]1O (some centres unmarked) [FSA-22091]	> 32		> 32	> 32			< 0.0313	> 32		< 0.0313	< 0.0313	< 0.0313	< 0.0313		8 (≈ 18.2 µM)	> 32	8 (≈ 18.2 µM)	< 0.0313	0.125 (≈ 0.285 µM)	> 32	MIC [13, 24]: 32 µg/mL; MIC (P. aeruginosa ATCC 27853; [25]): > 32 µg/mL; MIC [17, 26]: > 32 µg/mL; MIC [18, 27]: > 32 µg/mL; MIC (E. coli ATCC 25922; [28]): 32 µg/mL (≈ 72.9 µM)
